From patent publication US9475798B2, “Azetidine estrogen receptor modulators and uses thereof” (Genentech, Inc., priority 2013, dated 2016)
Read-outs that look alike come from different tables or passages of the source.

How the values were obtained:
[1] = test system: MCF-7 cells; assay: Breast Cancer Cell Viability Assay (MCF7, CellTiter-Glo); settings: for MCF7 Viability Assay: % Viability relative to Fulvestrant: 5 days, 100-{100*[(100-% viability of Example)/(100-% viability of Fulvestrant)]};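 for all read-outs here: CellTiter-Glo luminescence read-out, background from cell-free medium subtracted, viability expressed against untreated cells, ten-point 1:5 compound dilution series spanning 10 to 0.000005 µM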
[2] = molecular target: T1, ER-α (Homo sapiens, UniProt P03372); assay: Breast Cancer Cell ER-α In-Cell Western Assay (SP1); assay type: cell-based; settings: MCF7 cells, 4 hours; 100-{100*[(100-% ER level of Example)/(100-% ER level of Fulvestrant)]}
T1 construct: endogenous in cells; host or cells: MCF7
T1 sequence (P03372 1-595): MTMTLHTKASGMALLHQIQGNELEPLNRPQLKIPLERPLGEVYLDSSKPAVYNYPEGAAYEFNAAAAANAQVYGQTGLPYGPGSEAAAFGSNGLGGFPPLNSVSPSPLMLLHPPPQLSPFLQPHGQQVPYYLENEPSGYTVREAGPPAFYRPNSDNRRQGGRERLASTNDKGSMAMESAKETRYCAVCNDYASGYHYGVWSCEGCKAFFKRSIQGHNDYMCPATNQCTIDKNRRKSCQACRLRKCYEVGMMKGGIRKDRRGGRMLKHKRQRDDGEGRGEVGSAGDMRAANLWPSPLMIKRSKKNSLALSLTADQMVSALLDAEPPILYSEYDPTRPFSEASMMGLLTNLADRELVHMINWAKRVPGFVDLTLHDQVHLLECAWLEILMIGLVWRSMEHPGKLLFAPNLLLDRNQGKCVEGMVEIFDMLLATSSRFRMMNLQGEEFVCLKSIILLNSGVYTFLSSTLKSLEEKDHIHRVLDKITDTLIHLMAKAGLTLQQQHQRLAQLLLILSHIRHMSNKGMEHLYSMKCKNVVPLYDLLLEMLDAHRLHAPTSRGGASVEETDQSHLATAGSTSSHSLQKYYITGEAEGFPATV
Method: MCF7 cells were trypsinized and washed twice in Phenol Red Free RPMI containing 5% Charcoal Dextran Stripped serum with 20 mM HEPES and NEAA, then adjusted to a concentration of 200,000 cells per mL with the same medium. […] At 4 hours post compound addition, the cells were fixed by adding 16 μL of 30% formalin to the 32 μL of cells and compound (10% formalin final concentration) for 20 minutes. Cells were then washed twice with PBS Tween 0.1% and then permeabilized in PBS 0.1% Triton (50 μl/well) for additional 15 minutes. The PBS 0.1% triton was decanted, and the cells were washed: LI-COR blocking buffer (50 μL/well) was added, the plate was spun at 3000 rpm, and then the blocking buffer was decanted. Additional LI-COR blocking buffer (50 μL/well) was added, and the cells were incubated overnight at 4° C. The blocking buffer was decanted, and the cells were incubated overnight at 4° C. with SP1 (Thermo Scientific) anti-ER rabbit monoclonal antibody diluted 1:1000 in LI-COR blocking buffer/0.1% Tween-20. Wells which were treated with blocking buffer with Tween but no antibody were used as a background control. Wells were washed twice with PBS Tween 0.1% to remove free SP1 antibodies, and the cells were incubated at room temp for 60-90 minutes in LI-COR goat anti-rabbit IRDye™ 800 CW (1:1000) and DRAQ5 DNA dye (1:10000 of 5 mM stock solution) diluted in LI-COR blocking buffer containing 0.1% Tween-20 and 0.01% SDS. Cells were then washed with 0.1% Tween-20/PBS three times. Plates were scanned on a LI-COR Odyssey infrared imaging system. Integrated intensities in the 800 nm channel and 700 nm channel were measured to determine levels of ER-α and DNA respectively. Percent ER levels were determined as follows: (Integrated intensity 800 nm sample/integrated intensity 700 nm sample)/(Integrated intensity 800 nm untreated cells/integrated intensity 700 nm untreated cells)×100=% ER-α levels.

[3] = read-out: MCF7 Viability Assay IC50, 5 days' compound exposure

Row | Structure (SMILES) | IC50 [1, 3] [nM] | ER-α In-Cell Western Assay (SP1): % ER-α remaining relative to Fulvestrant [2] [%] | IC50 ([1]; read-out: MCF7 Viability Assay IC50, 5 days' compound exposure, cell printed without unit) [nM] | MCF7 Viability Assay: % Viability relative to Fulvestrant [1] [%]
1 | CC1=C(c2ccc(F)c(F)c2)C(c2ccc(OC[C@H](C)N3CC[C@@H](C)C3)cc2)Oc2ccc(O)cc21 (stereo partly drawn) [3-(3,4-difluorophenyl)-4-methyl-2-(4-((S)-2-((R)-3-methylpyrrolidin-1-yl)propoxy)phenyl)-2H-chromen-6-ol, reference compound] | 0.7 | 14 | – | 19
2 | CC1=C(c2ccc(Cl)cc2)C(c2ccc(OC[C@H](C)N3CC[C@@H](C)C3)cc2)Oc2ccc(O)cc21 (stereo partly drawn) [3-(4-chlorophenyl)-4-methyl-2-(4-((S)-2-((R)-3-methylpyrrolidin-1-yl)propoxy)phenyl)-2H-chromen-6-ol, reference compound] | 1.9 | 15 | – | 14
3 | CC1=C(c2ccc(F)cc2)C(c2ccc(OC[C@H](C)N3CC[C@@H](C)C3)cc2)Oc2ccc(O)cc21 (stereo partly drawn) [3-(4-fluorophenyl)-4-methyl-2-(4-((S)-2-((R)-3-methylpyrrolidin-1-yl)propoxy)phenyl)-2H-chromen-6-ol, reference compound] | 0.4 | 18 | – | 17
4 | CC1=C(c2ccc(C#N)cc2)C(c2ccc(OC[C@H](C)N3CC[C@@H](C)C3)cc2)Oc2ccc(O)cc21 (stereo partly drawn) [4-(6-hydroxy-4-methyl-2-(4-((S)-2-((R)-3-methylpyrrolidin-1-yl)propoxy)phenyl)-2H-chromen-3-yl)benzonitrile, reference compound] | 10 | – | – | 15
5 | CC1=C(c2ccc(F)cc2)[C@@H](c2ccc(OC[C@H](C)N3CC[C@@H](C)C3)cc2)Oc2ccc(O)cc21 [(R)-3-(4-fluorophenyl)-4-methyl-2-(4-((S)-2-((R)-3-methylpyrrolidin-1-yl)propoxy)phenyl)-2H-chromen-6-ol, reference compound] | – | 13 | – | –
6 | CC1=C(c2ccc(F)cc2)[C@H](c2ccc(OC[C@H](C)N3CC[C@@H](C)C3)cc2)Oc2ccc(O)cc21 [(S)-3-(4-fluorophenyl)-4-methyl-2-(4-((S)-2-((R)-3-methylpyrrolidin-1-yl)propoxy)phenyl)-2H-chromen-6-ol, reference compound] | – | 16 | 0.3 | 14

The next lines start with results.

Row | IC50 [1, 3] [nM] | ER-α In-Cell Western Assay (SP1): % ER-α remaining relative to Fulvestrant [2] [%] | IC50 ([1]; read-out: MCF7 Viability Assay IC50, 5 days' compound exposure, cell printed without unit) [nM] | Structure (SMILES) | MCF7 Viability Assay: % Viability relative to Fulvestrant [1] [%]
7 | 26 | – | – | CC1=C(c2ccc(F)cc2)[C@@H](c2ccc(OCCN3CC(CF)C3)cc2)Oc2ccc(O)cc21 (single isomer, unassigned) [Example 2] | 3
8 | 0.36 | – | – | CC1=C(c2ccc(F)cc2)C(c2ccc(OCCN3CC(CF)C3)cc2)Oc2ccc(O)cc21 (stereo not shown) [Example 1, 2-(4-(2-(3-(Fluoromethyl)azetidin-1-yl)ethoxy)phenyl)-3-(4-fluorophenyl)-4-methyl-2H-chromen-6-ol] | 3
9 | 1.2 | 3 | – | CC1=C(c2ccc(Cl)cc2)C(c2ccc(OCCN3CC(CF)C3)cc2)Oc2ccc(O)cc21 (stereo not shown) [Example 4, 3-(4-Chlorophenyl)-2-(4-(2-(3-(fluoromethyl)azetidin-1-yl)ethoxy)phenyl)-4-methyl-2H-chromen-6-ol] | 3
10 | 3.5 | 2 | – | CC1=C(c2ccc(C#N)cc2)C(c2ccc(OCCN3CC(CF)C3)cc2)Oc2ccc(O)cc21 (stereo not shown) [Example 7, 4-(2-(4-(2-(3-(Fluoromethyl)azetidin-1-yl)ethoxy)phenyl)-6-hydroxy-4-methyl-2H-chromen-3-yl)benzonitrile] | 0
